Experimental findings from patent US11135209B2, “Compositions and methods for inhibiting protein kinases” (UNIVERSITY OF HOUSTON SYSTEM, priority 2017, dated 2021) are described below.

Where only a bound is given, the exact number is not on record here.

Assay [1] concerns the target Recombinant RIPK2 protein (Homo sapiens, UniProt O43353). Briefly: Receptor Interacting Protein Kinase 2 (RIPK2) enzyme assay (ADP-Glo). The format is biochemical. As for the experimental part: Receptor Interacting Protein Kinase 2 (RIPK2) Enzyme Assay
Recombinant RIPK2 protein (20 ng per reaction) is diluted in the reaction buffer consisting of 40 mM Tris (pH 7.5); 20 mM MgCl2; 0.1 mg/ml BSA; 50 μM DTT. Diluted protein is added to low volume white 384 well plates (2 μL/well). Inhibitors are diluted in reaction buffer (final 25% DMSO), 1 μL is added to each well and incubated 5 min at room temperature. Reactions are initiated by the addition of 2 μL of 100 μM ATP and 1 mg/ml RS repeat peptide (SignalChem) in the reaction buffer. Plates are sealed with plastic coverslips and incubated at room temperature for 2 h. Reactions are stopped by the addition of 5 μL of ADP-Glo reagent (Promega) and ADP generation reaction is performed for 40 min at room temperature. Luminescence signal is generated by the addition of 10 μL of Kinase detection reagent (Promega) for 30 min at room temperature Luminescence signals are determined using appropriate luminescence plate-reader (typical integration time 0.3-1 sec). To calculate percent inhibition, average background signal is subtracted from test well and maximal signal wells. Inhibition, %=(1−(test signal/maximal signal))*100. The percent inhibition at a specified concentration is determined or IC50 values are calculated based on a dose range of inhibitor concentrations using non-linear regression in GraphPad Prism software.

The next assay addresses T1, human ALK2 (Homo sapiens, UniProt Q04771).
T1 sequence (Q04771 21-509): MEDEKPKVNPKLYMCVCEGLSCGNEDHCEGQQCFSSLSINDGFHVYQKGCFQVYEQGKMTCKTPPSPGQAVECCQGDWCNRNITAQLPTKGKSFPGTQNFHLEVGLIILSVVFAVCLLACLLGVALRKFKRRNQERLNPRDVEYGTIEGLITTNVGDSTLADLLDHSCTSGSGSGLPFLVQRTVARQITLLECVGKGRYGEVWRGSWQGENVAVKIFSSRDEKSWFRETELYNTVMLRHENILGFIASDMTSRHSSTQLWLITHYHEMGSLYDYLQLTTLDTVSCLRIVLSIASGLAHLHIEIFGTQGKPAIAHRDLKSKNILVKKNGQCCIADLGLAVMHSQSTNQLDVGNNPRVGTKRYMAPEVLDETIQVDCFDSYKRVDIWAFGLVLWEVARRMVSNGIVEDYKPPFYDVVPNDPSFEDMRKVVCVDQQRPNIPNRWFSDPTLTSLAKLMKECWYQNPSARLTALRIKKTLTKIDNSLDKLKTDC
Briefly: Activin-Like Kinase 2 (ALK2) enzyme assay. The class given is biochemical. As for the experimental part: Activin-Like Kinase 2 (ALK2) Enzyme Assay
Enzyme inhibitory activity was evaluated in a standard kinase enzyme assay by incubating human ALK2 with the protein substrate casein (1 mg/mL) and γ-^33ATP (10 μM) in the presence of various concentrations of test compounds (10 nM-100 μM). After 30 min the amount of ^33P-casein was determined.

The subject of assay [2] is NOD2 cellular signaling in HEK-Blue cells expressing human NOD2. Kind of assay: NOD2 cell signaling assay (HEK-Blue, NFkB-SEAP reporter, L18-MDP stimulated). The format is cell-based. The conditions noted are these: read-out: IC50 (nM) HEKBlue RIPK2. How it is done: NOD2 Cell Signaling Assay.
HEK-Blue cells expressing human NOD2 and NFkB-SAEP reporter (Invivogen) are seeded into 96 well clear plates at 7.5×10^3 cells per well in 100 μL of DMEM media supplemented with 10% FBS and 1% antibiotic-antimycotic mix. Cells are allowed to attach for 48 h in 5% CO2 tissue culture incubator at 37° C. On the morning of the experiment, media in the wells is replaced with 100 pt of HEK-Blue detection media (Invivogen). Cells are treated with the inhibitors, diluted in DMSO (0.5 μL per well) for 15 min in 5% CO2 tissue culture incubator at 37° C. After that, cells are stimulated by the addition of 1 ng/well L18-MDP (Invivogen). Cells are incubated in 5% CO2 tissue culture incubator at 37° C. for 8 h and absorbance, corresponding to the SEAP in the media, is determined in Wallac3V plate reader (Perkin Elmer). Inhibition, %=(1−((sample signal-unstimulated and DMSO treated cells)/(L18-MDP stimulated and DMSO treated cells−unstimulated and DMSO treated cells)))*100. IC50 values are calculated based on a dose range of inhibitor concentrations using non-linear regression in GraphPad Prism software.

Chain of Recombinant RIPK2 protein (O43353 whole entry, species assumed): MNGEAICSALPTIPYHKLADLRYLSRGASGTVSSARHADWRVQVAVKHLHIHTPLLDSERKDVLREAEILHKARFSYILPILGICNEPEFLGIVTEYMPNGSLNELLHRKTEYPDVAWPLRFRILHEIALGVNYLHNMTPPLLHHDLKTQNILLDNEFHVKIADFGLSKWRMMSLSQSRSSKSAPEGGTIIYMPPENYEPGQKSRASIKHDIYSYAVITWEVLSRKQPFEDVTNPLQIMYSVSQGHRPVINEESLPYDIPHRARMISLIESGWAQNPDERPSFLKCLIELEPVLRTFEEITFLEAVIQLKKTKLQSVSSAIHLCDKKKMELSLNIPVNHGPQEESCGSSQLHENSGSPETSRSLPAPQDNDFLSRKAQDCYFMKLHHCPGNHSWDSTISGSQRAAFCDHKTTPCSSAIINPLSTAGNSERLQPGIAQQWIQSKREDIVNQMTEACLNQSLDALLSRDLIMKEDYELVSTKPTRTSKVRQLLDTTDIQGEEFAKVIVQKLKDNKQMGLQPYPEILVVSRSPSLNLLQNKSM

For orientation: IC50 means the concentration that inhibits the measured activity by half. As a reminder, the inhibition is the drop in the measured response relative to a control, in per cent. As to `COc1cc(NS(=O)(=O)CC(C)C)cc(-c2cc(-c3ccc(N4CCNCC4)cc3)cnc2C)c1` [CSLP17, N-(3-Methoxy-5-(2-methyl-5-(4-(piperazin-1-yl)phenyl)pyridin-3-yl)phenyl)-2-methylpropane-1-sulfonamide], the IC50 is > 10 nM in assay [1], > 10 nM at human ALK2 and > 1000 nM in assay [2]. Further, the inhibition at 0.5 µM in assay [1] (Conc. 500 nM) came out at 86%.

As to `CCCS(=O)(=O)Nc1cc(-c2cc(-c3ccc(N4CCNCC4)cc3)cnc2N)ccc1OC` [CSLP18], the IC50 was > 10 nM in assay [1], > 1000 nM against human ALK2 and > 100 nM in assay [2].

`CCCS(=O)(=O)Nc1cc(-c2cc(-c3ccc(N4CCNCC4)cc3)cnc2N)cc(OC)c1C` [CSLP19, N-(5-(2-Amino-5-(4-(piperazin-1-yl)phenyl)pyridin-3-yl)-3-methoxy-2-methylphenyl)propane-1-sulfonamide]: the half-maximal inhibitory concentration (IC50) is > 1000 nM in assay [1], > 100 nM at human ALK2 and > 1000 nM in assay [2].

For `COc1cc(NS(=O)(=O)c2ccccc2)cc(-c2cc(-c3ccc(N4CCNCC4)cc3)cnc2N)c1` [CSLP20, N-(3-(2-Amino-5-(4-(piperazin-1-yl)phenyl)pyridin-3-yl)-5-methoxyphenyl)benzenesulfonamide], the half-maximal inhibitory concentration (IC50) in assay [1] is > 1 nM; on human ALK2 it was > 1 nM; in assay [2], > 10 nM.

Turning to `COc1cc(-c2cc(-c3ccc(N4CCNCC4)cc3)cnc2N)cc(NS(C)(=O)=O)c1C` [CSLP21, N-(5-(2-Amino-5-(4-(piperazin-1-yl)phenyl)pyridin-3-yl)-3-methoxy-2-methylphenyl)methanesulfonamide], the concentration for half-maximal inhibition (IC50) in assay [1] is > 1000 nM; against human ALK2, > 100 nM; in assay [2], > 1000 nM.

With `CCOc1cc(NS(=O)(=O)C(C)C)cc(-c2cc(-c3ccc(N4CCNCC4)cc3)cnc2N)c1` [CSLP22, N-(3-(2-Amino-5-(4-(piperazin-1-yl)phenyl)pyridin-3-yl)-5-ethoxyphenyl)propane-2-sulfonamide], the figures for the IC50 (in assay [1]; against human ALK2; in assay [2]) were > 10 nM, > 100 nM and > 10 nM, respectively.

On to `COc1cc(NS(=O)(=O)Cc2ccccc2)cc(-c2cc(-c3ccc(N4CCNCC4)cc3)cnc2N)c1` [CSLP24, N-(3-(2-Amino-5-(4-(piperazin-1-yl)phenyl)pyridin-3-yl)-5-methoxyphenyl)-1-phenylmethanesulfonamide], for which the IC50 in assay [1] is > 100 nM; against human ALK2, > 1 nM; in assay [2], > 100 nM.

`COc1cc(-c2cc(-c3ccc(N4CCNCC4)cc3)cnc2N)cc(NS(=O)(=O)C(C)C)c1C` [CSLP25, N-(5-(2-Amino-5-(4-(piperazin-1-yl)phenyl)pyridin-3-yl)-3-methoxy-2-methylphenyl)propane-2-sulfonamide]: the IC50 (in assay [1]; at human ALK2; in assay [2]) was > 1000 nM each time.

In the case of `CCCS(=O)(=O)Nc1cc(-c2cc(-c3ccc(N4CCNCC4)cc3)cnc2N)ccc1C` [CSLP26, N-(5-(2-Amino-5-(4-(piperazin-1-yl)phenyl)pyridin-3-yl)-2-methylphenyl)propane-1-sulfonamide], the IC50 in assay [1] was > 100 nM; at human ALK2, > 1000 nM; in assay [2], > 1000 nM.

Take `COc1ccc(-c2cc(-c3ccc(N4CCNCC4)cc3)cnc2N)cc1NS(=O)(=O)C(C)C` [CSLP28, N-(5-(2-Amino-5-(4-(piperazin-1-yl)phenyl)pyridin-3-yl)-2-methoxyphenyl)propane-2-sulfonamide]: the half-inhibitory concentration (IC50) in assay [1] is > 10 nM; against human ALK2, > 1000 nM; in assay [2], > 100 nM.

As to `CC(C)Oc1cc(NS(=O)(=O)C(C)C)cc(-c2cc(-c3ccc(N4CCNCC4)cc3)cnc2N)c1` [CSLP29, N-(3-(2-Amino-5-(4-(piperazin-1-yl)phenyl)pyridin-3-yl)-5-isopropoxyphenyl)propane-2-sulfonamide], the figures for the half-maximal inhibitory concentration (IC50) (in assay [1]; at human ALK2; in assay [2]) were > 100 nM, > 100000 nM and > 100 nM, respectively.

With `CCCS(=O)(=O)Nc1cc(-c2cc(-c3cccc(S(C)(=O)=O)c3)cnc2N)ccc1OC` [CSLP30], the IC50 in assay [1] was > 100 nM; on human ALK2 it was > 10000 nM; in assay [2] it was > 1000 nM.

For the molecule `COc1cc(-c2cc(-c3ccc(N4CCNCC4)cc3)cnc2N)cc(NS(=O)(=O)Cc2ccccc2)c1C` [CSLP31, N-(5-(2-Amino-5-(4-(piperazin-1-yl)phenyl)pyridin-3-yl)-3-methoxy-2-methylphenyl)-1-phenylmethanesulfonamide], the half-inhibitory concentration (IC50) in assay [1] was > 1000 nM; on human ALK2, > 10 nM; in assay [2], > 100 nM.

In the case of `CCCS(=O)(=O)Nc1cc(-c2cc(-c3ccccc3S(C)(=O)=O)cnc2N)ccc1OC` [CSLP33, N-(5-(2-Amino-5-(2-(methylsulfonyl)phenyl)pyridin-3-yl)-2-methoxyphenyl)propane-1-sulfonamide], the half-maximal inhibitory concentration (IC50) is > 1000 nM in assay [1], > 100000 nM against human ALK2 and > 1000 nM in assay [2].

`CCCS(=O)(=O)Nc1cc(-c2cc(-c3ccc(S(C)(=O)=O)cc3)cnc2N)ccc1OC` [CSLP34]: the half-inhibitory concentration (IC50) is > 100 nM in assay [1], > 10000 nM at human ALK2 and > 1000 nM in assay [2].

On to `CCCS(=O)(=O)Nc1cc(-c2cc(-c3ccc(N4CCNCC4)cc3)cnc2N)cc(Cl)c1OC` [CSLP35], for which the half-maximal inhibitory concentration (IC50) was > 10 nM in assay [1], > 100 nM at human ALK2 and > 10 nM in assay [2].

Take `CCCS(=O)(=O)NCc1cc(-c2cc(-c3ccc(N4CCNCC4)cc3)cnc2N)ccc1OC` [CSLP36, N-(5-(2-Amino-5-(4-(piperazin-1-yl)phenyl)pyridin-3-yl)-2-methoxybenzyl)propane-1-sulfonamide]: the IC50 in assay [1] was > 100 nM; against human ALK2 it was > 100 nM; in assay [2], > 1000 nM.

Consider `CCCS(=O)(=O)Nc1cc(-c2cc(-c3ccc(N4CCNCC4)cc3)cnc2N)cc(F)c1OC` [CSLP37, N-(5-(2-Amino-5-(4-(piperazin-1-yl)phenyl)pyridin-3-yl)-3-fluoro-2-methoxyphenyl)propane-1-sulfonamide], for which the results for the 50% inhibitory concentration (IC50) (in assay [1]; against human ALK2; in assay [2]) were > 10 nM, > 100 nM and > 10 nM, respectively.

Consider `CCCS(=O)(=O)Nc1cc(F)cc(-c2cc(-c3ccc(N4CCNCC4)cc3)cnc2N)c1` [CSLP38, N-(3-(2-Amino-5-(4-(piperazin-1-yl)phenyl)pyridin-3-yl)-5-fluorophenyl)propane-1-sulfonamide], for which the IC50 in assay [1] was > 10 nM; on human ALK2, > 10 nM; in assay [2], > 100 nM.

For the molecule `CCCS(=O)(=O)Nc1cc(-c2cc(-c3ccc(N4CCNCC4)cc3)cnc2N)cc(Cl)c1C` [CSLP40, N-(5-(2-Amino-5-(4-(piperazin-1-yl)phenyl)pyridin-3-yl)-3-chloro-2-methylphenyl)propane-1-sulfonamide], the IC50 in assay [1] was > 100 nM; at human ALK2, > 100 nM; in assay [2], > 1000 nM.

As for `CCCS(=O)(=O)Nc1cc(-c2cc(-c3ccc(N4CCNCC4)cc3)cnc2N)cc(F)c1C` [CSLP41, N-(5-(2-Amino-5-(4-(piperazin-1-yl)phenyl)pyridin-3-yl)-3-fluoro-2-methylphenyl)propane-1-sulfonamide], the concentration for half-maximal inhibition (IC50) was > 100 nM in assay [1], > 100000 nM against human ALK2 and > 100 nM in assay [2].
